Melting point data for 40 molecules are collected here from patent publication US7423159B2, “Agent for preventing or treating neuropathy” (Takeda Pharmaceutical Company Limited, priority 2002, dated 2008).

With `Cn1ncc(/C=C/C(=O)Nc2ccc(CS(=O)(=O)C(C)(C)C)cc2)c1-c1ccc(F)cc1` [Example 224, (2E)-N-{4-[(tert-Butylsulfonyl)methyl]phenyl}-3-[5-(4-fluorophenyl)-1-methyl-1H-pyrazol-4-yl]acrylamide], the melting point – broadly, the temperature, or range, at which the solid turns liquid – is 260 to 261 °C. `CCOP(=O)(Cc1ccc(NC(=O)/C=C/c2cnn(C)c2C)cc1)OCC`: the melting point lay in the range of 228 to 230 °C. With `Cn1ncc(/C=C/C(=O)Nc2ccc(Cc3n[nH]c(=O)o3)cc2)c1-c1ccc(F)cc1` [Example 86, (2E)-3-[5-(4-Fluorophenyl)-1-methyl-1H-pyrazol-4-yl]-N-{4-[(5-oxo-4,5-dihydro-1,3,4-oxadiazol-2-yl)methyl]phenyl}acrylamide], the melting point was 262 to 263 °C.

`Cc1cncn1Cc1ccc(NC(=O)/C=C/c2cnn(C)c2-c2ccc(F)cc2)cc1` [Example 201, (2E)-3-[5-(4-Fluorophenyl)-1-methyl-1H-pyrazol-4-yl]-N-{4-[(5-methyl-1H-imidazol-1-yl)methyl]phenyl}acrylamide] returned a melting point of 260 to 261 °C. With `COP(=O)(Cc1ccc(NC(=O)/C=C/c2cnn(C)c2-c2ccco2)cc1)OC` the figure was 201 to 202 °C; with `Cn1ncc(/C=C/C(=O)Nc2ccc(S(N)(=O)=O)cc2)c1-c1ccc(F)cc1` [Example 181, (2E)-N-[4-(Aminosulfonyl)phenyl]-3-[5-(4-fluorophenyl)-1-methyl-1H-pyrazol-4-yl]acrylamide], 300 to 305 °C (dec.). On to `COC(=O)c1ccc(NC(=O)CCc2cnn(-c3ccccc3)c2-c2ccccc2)cc1` [Example 82, N-[4-(Methoxycarbonyl)phenyl]-3-(1,5-diphenyl-1H-pyrazol-4-yl)propionamide], for which the melting point lay within 196 to 197 °C. With `CC(C)c1nccn1Cc1ccc(NC(=O)/C=C/c2cnn(C)c2-c2ccc(F)cc2)cc1` [Example 162, (2E)-3-[5-(4-Fluorophenyl)-1-methyl-1H-pyrazol-4-yl]-N-{4-[(2-isopropyl-1H-imidazol-1-yl)methyl]phenyl}acrylamide] the figure was 271 to 272 °C. Molecule `CCn1nc(Cc2ccc(NC(=O)/C=C/c3cnn(C)c3-c3ccc(F)cc3)cc2)oc1=O` [Example 120, (2E)-N-{4-[(4-Ethyl-5-oxo-4,5-dihydro-1,3,4-oxadiazol-2-yl)methyl]phenyl}-3-[5-(4-fluorophenyl)-1-methyl-1H-pyrazol-4-yl]acrylamide] came in with a melting point of 149 to 150 °C. In turn, `CCOP(=O)(Cc1ccc(NC(=O)/C=C/c2cnn(C)c2-c2cccnc2)cc1)OCC` returned a melting point of 211 to 214 °C.

In the case of `Cn1ncc(/C=C/C(=O)Nc2ccc(CSc3ccccc3)cc2)c1-c1ccc(F)cc1` [Example 212, (2E)-3-[5-(4-Fluorophenyl)-1-methyl-1H-pyrazol-4-yl]-N-{4-[(phenylthio)methyl]phenyl}acrylamide], the melting point is 197 to 198 °C. With `COP(=O)(Cc1ccc(NC(=O)CCc2cnn(C)c2-c2ccc(F)cc2)cc1)OC` the figure was 142 to 143 °C. With `CCOP(=O)(Cc1ccc(NC(=O)CCc2cnn(-c3ccccc3)c2-c2ccccc2)cc1)OCC` the figure was 157 to 159 °C; with `COP(=O)(Cc1ccc(NC(=O)/C=C/c2snnc2-c2ccc(F)cc2)cc1)OC`, 196 to 197 °C; with `COC(=O)c1ncnn1Cc1ccc(NC(=O)/C=C/c2cnn(C)c2-c2ccc(F)cc2)cc1` [Example 164, Methyl 1-[4-({(2E)-3-[5-(4-fluorophenyl)-1-methyl-1H-pyrazol-4-yl]prop-2-enoyl}amino)benzyl]-1H-1,2,4-triazole-5-carboxylate], 203 to 205 °C. In the case of `COCc1ccc(NC(=O)/C=C/c2cnn(C)c2-c2ccc(F)cc2)cc1` [Example 209, (2E)-3-[5-(4-Fluorophenyl)-1-methyl-1H-pyrazol-4-yl]-N-[4-(methoxymethyl)phenyl]acrylamide] it was 170 to 171 °C; in that of `Cn1ncc(/C=C/C(=O)Nc2ccc(CCc3nccs3)cc2)c1-c1ccc(F)cc1` [Example 130, (2E)-3-[5-(4-Fluorophenyl)-1-methyl-1H-pyrazol-4-yl]-N-(4-[2-(1,3-thiazol-2-yl)ethyl]phenyl}acrylamide], 201 to 202 °C. On to `CCc1csc(Cc2ccc(NC(=O)/C=C/c3cnn(C)c3-c3ccc(F)cc3)cc2)n1` [Example 125, (2E)-N-{4-[(4-ethyl-1,3-thiazol-2-yl)methyl]phenyl}-3-[5-(4-fluorophenyl)-1-methyl-1H-pyrazol-4-yl]acrylamide], for which the melting point was 211 to 212 °C. `CCN1C(=O)SC(Cc2ccc(NC(=O)/C=C/c3cnn(C)c3-c3ccc(F)cc3)cc2)C1=O` (stereo not shown) [Example 111, (2E)-N-{4-[(3-Ethyl-2,4-dioxo-1,3-thiazolidin-5-yl)methyl]phenyl}-3-[5-(4-fluorophenyl)-1-methyl-1H-pyrazol-4-yl]acrylamide] returned a melting point of 214 to 215 °C.

On to `CCOP(=O)(Cc1ccc(NC(=O)/C=C/c2cnn(C)c2-c2ccc(C)cc2)cc1)OCC`, for which the melting point was in the range of 243 to 245 °C. With `CCn1nnc(Cc2ccc(NC(=O)/C=C/c3cnn(C)c3-c3ccc(F)cc3)cc2)n1` [Example 104, (2E)-N-{4-[(2-Ethyl-2H-tetrazol-5-yl)methyl]phenyl}-3-[5-(4-fluorophenyl)-1-methyl-1H-pyrazol-4-yl]acrylamide] the figure was 187 to 188 °C; with `Cn1ncc(/C=C/C(=O)Nc2ccc(Cn3ncnn3)cc2)c1-c1ccc(F)cc1` [Example 198, (2E)-3-[5-(4-Fluorophenyl)-1-methyl-1H-pyrazol-4-yl]-N-[4-(2H-tetrazol-2-ylmethyl)phenyl]acrylamide], 210 to 211 °C.

In the case of `CCOP(=O)(OCC)C(O)c1ccc(NC(=O)/C=C/c2cnn(C)c2-c2ccc(F)cc2)cc1` (stereo not shown), the melting point lay in the range of 194 to 195 °C. In the case of `Cn1ncc(/C=C/C(=O)Nc2cccc(CO)c2)c1-c1ccc(F)cc1` [Example 169, (2E)-3-[5-(4-Fluorophenyl)-1-methyl-1H-pyrazol-4-yl]-N-[3-(hydroxymethyl)phenyl)acrylamide] it was 130 to 132 °C.

As to `CCOP(=O)(Cc1cccc(NC(=O)/C=C/c2cnn(C)c2-c2ccc(F)cc2)c1)OCC`, the melting point was in the range of 170 to 172 °C. In the case of `CCC(O)(CC)Cc1ccc(NC(=O)/C=C/c2cnn(C)c2-c2ccc(F)cc2)cc1` [Example 115, (2E)-N-[4-(2-Ethyl-2-hydroxybutyl)phenyl]-3-[5-(4-fluorophenyl)-1-methyl-1H-pyrazol-4-yl]acrylamide] it was 150 to 151 °C. Take `COP(=O)(Cc1ccc(NC(=O)/C=C/c2cnn(C)c2-c2ccoc2)cc1)OC`: the melting point is 176 to 177 °C. On to `Cn1ncc(/C=C/C(=O)Nc2ccc(Cn3ncc4ccccc43)cc2)c1-c1ccc(F)cc1` [Example 176, (2E)-3-[5-(4-Fluorophenyl)-1-methyl-1H-pyrazol-4-yl]-N-[4-(1H-indazol-1-ylmethyl)phenyl]acrylamide], for which the melting point is 146 to 148 °C.

For the molecule `CSc1ccc(NC(=O)/C=C/c2cnn(C)c2-c2ccc(F)cc2)cc1` [Example 204, (2E)-3-[5-(4-Fluorophenyl)-1-methyl-1H-pyrazol-4-yl]-N-[4-(methylthio)phenyl]acrylamide], the melting point lay in the range of 164 to 165 °C. With `Cn1ncc(/C=C/C(=O)Nc2ccc(OCc3nnco3)cc2)c1-c1ccc(F)cc1` [Example 94, (2E)-3-[5-(4-Fluorophenyl)-1-methyl-1H-pyrazol-4-yl]-N-[4-(1,3,4-oxadiazol-2-ylmethoxy)phenyl]acrylamide], the melting point is 154 to 155 °C. With `CCOP(=O)(Cc1ccc(NC(=O)/C=C/c2nncn2-c2ccc(F)cc2)cc1)OCC` the figure was 217 to 218 °C; with `CN(C)C(=O)Cc1ccc(NC(=O)/C=C/c2cnn(C)c2-c2ccc(F)cc2)cc1` [Example 143, (2E)-N-{4-[2-(dimethylamino)-2-oxoethyl]phenyl}-3-[5-(4-fluorophenyl)-1-methyl-1H-pyrazol-4-yl]acrylamide], 209 to 210 °C; with `COP(=O)(Cc1ccc(NC(=O)/C=C/c2cnn(C)c2-c2ccccc2F)cc1)OC`, 220 to 221 °C.

In turn, `Cn1ncc(/C=C/C(=O)Nc2ccc(Cc3nc4c(s3)CCCC4)cc2)c1-c1ccc(F)cc1` [Example 124, (2E)-3-[5-(4-Fluorophenyl)-1-methyl-1H-pyrazol-4-yl]-N-[4-(4,5,6,7-tetrahydro-1,3-benzothiazol-2-ylmethyl)phenyl]acrylamide] showed a melting point of 205 to 206 °C. In the case of `CCCc1nnc(Cc2ccc(NC(=O)/C=C/c3cnn(C)c3-c3ccc(F)cc3)cc2)o1` [Example 85, (2E)-3-[5-(4-fluorophenyl)-1-methyl-1H-pyrazol-4-yl]-N-{4-[(5-propyl-1,3,4-oxadiazol-2-yl)methyl]phenyl}acrylamide] it was 154 to 155 °C; in that of `Cn1ncc(/C=C/C(=O)Nc2ccc(CSc3c[nH]nn3)cc2)c1-c1ccc(F)cc1` [Example 213, (2E)-3-[5-(4-Fluorophenyl)-1-methyl-1H-pyrazol-4-yl]-N-(4-[(1H-1,2,3-triazol-4-ylthio)methyl)phenyl]acrylamide], 182 to 183 °C. In the case of `CCOC(=O)CCC(=O)NCc1ccc(NC(=O)/C=C/c2cnn(C)c2-c2ccc(F)cc2)cc1` [Example 188, Ethyl 4-{[4-({(2E)-3-[5-(4-fluorophenyl)-1-methyl-1H-pyrazol-4-yl]prop-2-enoyl}amino)benzyl]amino}-4-oxobutanoate] it was 195 to 197 °C. In the case of `CSCc1ccc(NC(=O)/C=C/c2cnn(C)c2-c2ccc(F)cc2)cc1` [Example 208, (2E)-3-[5-(4-fluorophenyl)-1-methyl-1H-pyrazol-4-yl]-N-{4-[(methylthio)methyl]phenyl}acrylamide] it was 165 to 168 °C; in that of `CCn1ncc(/C=C/C(=O)Nc2ccc(CP(=O)(OC)OC)cc2)c1-c1ccc(F)cc1`, 187 to 189 °C. On to `CC(C)C(=O)NCc1ccc(NC(=O)/C=C/c2cnn(C)c2-c2ccc(F)cc2)cc1` [Example 139, (2E)-3-[5-(4-Fluorophenyl)-1-methyl-1H-pyrazol-4-yl]-N-{4-[(isobutyrylamino)methyl]phenyl}acrylamide], for which the melting point was in the range of 258 to 259 °C.
